How the values were obtained:
[1] = biological target: T1, human mGluR5a receptor (Homo sapiens, UniProt P41594); assay: Automated fluorescence assay (fluo-3) in transiently transfected HEK 293 cells; assay type: cell-based; parameters: expressed in transfected cells; host or cells: HEK 293 cells, transient CaPO4 transfection; settings: cells transfected with mGluR5a2
Procedure: HEK 293 cells were transiently transfected with DNA encoding mGluR5a (constructs mGluR5a2 and mGluR5a3 and construct MMTV-hmGluR5a) receptors. Approximately 2×10^6 HEK cells were transiently transfected with 5-18 μg (or 0.18 μg in some transfections, see Example 3.C.2.) of the indicated plasmid according to standard CaPO4 transfection procedures [see Wigler et al. (1979) Proc. Natl. Acad. Sci. USA 76:1373-1376]. In addition, 0.5-2 μg (or 0.18 μg in some transfections, see Example 3.C.2) of plasmid pCMVβgal (Clontech Laboratories, Palo Alto, Calif.), which contains the Escherichia coli β-galactosidase gene fused to the CMV promoter, were co-transfected as a reporter gene for monitoring the efficiency of transfection. The transfectants were analyzed for β-galactosidase expression by direct staining of the product of a reaction involving β-galactosidase and the X-gal substrate [Jones (1986) EMBO 5:3133-3142]. Transfectants can also be analyzed for β-galactosidase expression by measurement of β-galactosidase activity [Miller (1972) in Experiments in Molecular Genetics, pp.352-355, Cold Spring Harbor Press].
HEK 293 cells that were transiently transfected with 5 μg of MMTV-hmGluR5A were co-transfected with 5 μg of pRShGR (ATCC accession no. 67200) which contains DNA encoding a glucocorticoid receptor operatively linked to the Rous Sarcoma virus (RSV) LTR promoter. Co-expression of glucocorticoid receptors in these cells should insure that induction of expression of the MMTV promoter-mGluR5a DNA occurs upon addition of glucocorticoid (e.g., dexamethasone) to the cells.
Untransfected HEK 293 cells (or HEK 293 cells transiently transfected with pCMV-T7-3) and HEK 293 cells that had been transfected with mGluR5a-encoding DNA were plated in the wells of a 96-well microtiter dish (Nunc Catalog No. 1-6708, distributed by Alameda Industries, Escondido, Calif.) that had been precoated with poly-L-lysine at a density of 2×10^5 cells/well and loaded with fluo-3 by incubation for 2 hours at 20° C. in a medium containing 20 μM fluo-3, 0.2% Pluronic F-127 in HBS (125 mM NaCl, 5 mM KCl, 1.8 mM CaCl2, 0.62 MM MgCl2, 20 mM glucose, 20 mM HEPES, pH 7.4). The cells were then washed with assay buffer (i.e. HBS). The microtiter dish was then placed into a fluorescence plate reader (e.g., Fluoroskan II, Lab Products International, Ltd., Raleigh, N.C.), and the basal fluorescence of each well was measured and recorded before addition of metabotropic receptor-modulating compounds such as quisqualate, glutamate, trans-ACPD (1-amino-cyclopentane-1,3-dicarboxylic acid), 1S,3R-ACPD, AP3 (2-amino-3-phosphonopropionate) AP5 (2-amino-5-phosphonopentanoate), and CNQX (6-cyano-7-nitroquinoxaline-2,3-dione) to the wells. The fluorescence of the wells was monitored repeatedly (75 readings at 0.63-sec intervals) following addition of agonist.

[2] = biological target: T1, human mGluR5a receptor; assay: Phosphatidylinositol hydrolysis (IP1) assay in HEK 293 cells transiently transfected with mGluR5a3; assay type: cell-based; parameters: expressed in transfected cells; host or cells: HEK 293 cells, transient CaPO4 transfection; settings: 1 mM AP3
Procedure: HEK 293 cells that had been transiently transfected with mGluR5a3 were plated in 24-well microtiter plates at a density of 8×10^5 cells/well. After the cells were allowed to settle and adhere to the bottom of the plate for a few hours, 2 μCi of [^3H]-myo-inositol (Amersham catalog # PT6-271, Arlington Heights, Ill.; specific activity=17.7 Ci/mmol) was added to each well and incubated overnight at 37° C. The next day, the cells were examined under a Nikon Diaphot inverted microscope to assess the health of the cells morphologically as well as to determine if the wells contained a confluent layer of cells. Media was then aspirated and the cells were washed twice with 0.5 ml Krebs bicarbonate buffer [117.9 mM NaCl, 4.72 mM KCl, 2.54 mM CaCl2, 1.18 mM MgSO4, 1.19 mM KH2PO4, 25 mM NaHCO3, 11.1 mM dextrose (equilibrated with 95% O2, 5% CO2, pH 7.4)]. The cells were incubated for 45 min. at room temperature. The buffer was then aspirated from each well and the cells were washed and incubated in 0.5 ml/well for 45 min at room temperature. The buffer was aspirated from each well, and the cells were then incubated for 20 min at 37° C. with 450 μl Krebs-bicarbonate buffer containing 10 mM LiCl instead of 10 mM NaCl (to block hydrolysis of IP1 to inositol and inorganic phosphate) and 10 mM unlabeled myo-inositol.
To begin treatment of the cells with metabotropic receptor-modulating compounds, 50 μl of Krebs-bicarbonate buffer (control) or 10× the final concentration of the compound was added to each well and the incubation was continued for 40 min. Incubation was terminated by addition of 1 ml ice-cold methanol to each well.
In order to isolate IP1 from the cells, the cells were removed from the plates by scraping with plastic pipette tips, and the cell suspension was transferred to 12×75 mm glass tubes. The tubes were thoroughly vortexed, and a 150-μl aliquot, i.e., one-tenth of the total volume, of each reaction mixture was transferred to another tube for protein determination. The water-soluble inositol phosphates were separated from the radiolabelled membrane phospholipids by extraction in 1 ml chloroform. The tubes were incubated at room temperature for 30 min before centrifugation at 500×g for 5 min at 4° C. The aqueous (top) layer containing the [^3H]-inositol phosphates was transferred to 10-ml syringes connected to Accell QMA SEP-PAK columns (Millipore; Calif.), which were attached to an Amersham Superseparator apparatus that was modified to allow collection into 20-ml scintillation vials. Water (10 ml) was added to the cartridge to remove [^3H]-inositol precursor, followed by 4 ml 0.02 M triethylammonium hydrogen carbonated buffer (TEAB, Fluka; N.Y.). To separately remove [^3H]-IP1, [^3H]-IP2 and [^3H]-IP3 from the cartridge, 4 ml of 0.1 M TEAB, 4 ml of 0.3 M TEAB and 4 ml of 0.4 M TEAB were sequentially added to the cartridge and the separate eluate fractions were collected in large scintillation vials. Ecolume cocktail (15 ml; ICN; California) was added to each vial for subsequent scintillation counting to determine the amount of each IP in the separate fractions. Protein concentration was determined using the Bio-Rad Protein Micro-Assay (Bio-Rad, Richmond, Calif.).

[3] = system: olfactory cyclic nucleotide-gated channel; assay: Single-cell video imaging of [Ca++]i in HEK293 cells transfected with pCMV-OCNA; assay type: cell-based; settings: 1 mM IBMX
Procedure: The transfectants were also analyzed by single-cell video imaging of internal calcium levels ([Ca^++]i). This method allows analysis of cyclic nucleotide-gated channel activity by measurement of intracellular calcium levels, which change with the amount of calcium influx through the channel, as regulated by cyclic nucleotide activation of the channel. The imaging assay was conducted essentially as described in Example 3.C.1.b., with some modifications. After dye loading, the cells were examined using a Zeiss Axiovert microscope and 100 W mercury lamp, a Dage intensified CCD camera, and Image-1 hardware and software for image processing. The software controlled the alternate excitation of the cells at 350 and 385 nm (typically every 5 seconds) through a 20×1.3 N.A. oil immersion objective. Light emitted at greater than 510 nm was collected by the CCD camera, digitized, and 350 and 385 nm excitation images were background-subtracted before calculating the 350/385 nm intensity ratio.
For quantitative analysis, the average 350/385 ratio value in a 12 by 12 pixel region over each cell was calculated by the software for each ratio image in an experiment and imported into a spreadsheet for further analysis and graphing. […]
In these experiments, the HEK293 cell transfectants were exposed to agents which increase intracellular cAMP levels and monitored for subsequent changes in [Ca^++]i. […]

[4] = biological target: olfactory cyclic nucleotide-gated channel (Rattus norvegicus, UniProt Q00195); settings: 1 mM cAMP; membrane potential ramped from −100 to +100 mV in 2 seconds; one patch
Procedure: HEK293 cells were grown in monolayers (approximately 2×10^6 cells per 10 cm poly-D-lysine-coated plate) in Dulbecco's modified Eagle's medium (DMEM; Gibco) containing 5% defined supplemented calf serum (Hyclone) including 100 U/ml penicillin and 100 μg/ml streptomycin sulfate. […] Transfection efficiencies, as determined by measuring β-galactosidase activity, were 50-70%.
HEK cells transfected with olfactory cyclic nucleotide-gated channel DNA were incubated 24-48 hours before testing for function. The activity of the channels was first assessed electrophysiologically using inside-out membrane patches pulled from the transfected cells so that the concentration of cAMP reaching the cytoplasmic face could be controlled (see, e.g., Single-Channel Recording, Sakmann and Neher, eds., Plenum Press, N.Y. (1983)). […]

[5] = system: endogenous G-protein-coupled muscarinic acetylcholine receptors; assay: Fluorescence imaging assay (fura-2), response to muscarinic agonist; assay type: cell-based, human; settings: 1 mM; transfectants and untransfected HEK 293 cells
Procedure: HEK 293 cells that had been transiently transfected with mGluR5a3 and untransfected HEK 293 cells (control) were analyzed by digital video imaging in order to visualize metabotropic receptor-mediated changes in intracellular Ca^++ concentration. Transfectants (4×10^5 cells per 35-mm culture dish with glass-insert bottom) were loaded with fura-2 by exposing the cells to 1 μM fura-2 (acetoxymethyl ester) for 25 min at room temperature in the dark. The cells were then washed three times with DMEM and four times with Ringer's (160 mM NaCl, 5 mM KCl, 2 mM CaCl2, 1 mM MgCl2, 11 mM glucose, 5 mM HEPES, pH 7.3) solution.
The transfectants and untransfected cells were then placed on the stage of an Axiovert 100 TV inverted microscope (Zeiss, Oberkochren, Germany) equipped with a 150 W xenon lamp as the UV light source. […]
The uncalibrated fura-2 ratios were used to generate pseudocolor images with purple corresponding to resting intracellular Ca^++ concentration (˜100 nM) and red to high intracellular Ca^++ concentration (˜1 μM). For quantitative analysis, the average ratio value in a 12-by-12 pixel region over each cell was calculated by the software for each ratio image in an experiment and imported into a spreadsheet for further analysis and graphing.

[6] = biological target: T1, human mGluR5a receptor; assay: [3H]-glutamate binding to membranes of HEK 293 cells transfected with mGluR5a3; parameters: expressed in transfected cells; host or cells: HEK 293 cells, transient CaPO4 transfection; settings: 200 μg of membranes, 100 nM [3H]-glutamate
Procedure: In order to prepare membranes from HEK 293 cells transfected. with mGluR5a-encoding DNA or pUC19 (negative control), cells were scraped from the tissue culture plates, and the plates rinsed with 5 ml of PBS (phosphate-buffered saline: 137 mM NaCl, 2.7 mM KCl, 10 mM Na2HPO4, 1.7 mM KH2PO4). The cells were centrifuged at low speed in a table-top centrifuge, and the cell pellet was rinsed with PBS. The cell pellet was resuspended in 20 volumes of 50 mM Tris-HCl containing 0.5 mM PMSF, pH 7.6. The cells were homogenized on ice in a Dounce (teflon/glass) homogenizer using 10-20 strokes. The homogenate was centrifuged at 120,000×g for 30 min. at 4° C. The final membrane pellet was resuspended in 50 mM Tris-HCl containing 0.5 mM PMSF, pH 7.6. […] The protein concentration was determined using the method of Bradford [(1976) Anal. Biochem. 72:248).
Specific binding of [^3H]-glutamate to membranes prepared from HEK 293 cells transfected with mGluR5a-encoding DNA or pUC19 was determined essentially as described for measuring binding to rat brain membranes with minor modifications. […] NMDA, AMPA and kainate were excluded from the assay mixture when HEK 293 cell membranes were being analyzed for [^3H]-glutamate binding.
Specific binding of [^3H]-glutamate to membranes prepared from HEK 293 cells transfected with mGluR5a3 or pUC19 was measured using 200 μg of membranes and 100 nM [^3H]-glutamate.

T1 sequence (P41594 21-1180 isoform P41594-2 limits assumed): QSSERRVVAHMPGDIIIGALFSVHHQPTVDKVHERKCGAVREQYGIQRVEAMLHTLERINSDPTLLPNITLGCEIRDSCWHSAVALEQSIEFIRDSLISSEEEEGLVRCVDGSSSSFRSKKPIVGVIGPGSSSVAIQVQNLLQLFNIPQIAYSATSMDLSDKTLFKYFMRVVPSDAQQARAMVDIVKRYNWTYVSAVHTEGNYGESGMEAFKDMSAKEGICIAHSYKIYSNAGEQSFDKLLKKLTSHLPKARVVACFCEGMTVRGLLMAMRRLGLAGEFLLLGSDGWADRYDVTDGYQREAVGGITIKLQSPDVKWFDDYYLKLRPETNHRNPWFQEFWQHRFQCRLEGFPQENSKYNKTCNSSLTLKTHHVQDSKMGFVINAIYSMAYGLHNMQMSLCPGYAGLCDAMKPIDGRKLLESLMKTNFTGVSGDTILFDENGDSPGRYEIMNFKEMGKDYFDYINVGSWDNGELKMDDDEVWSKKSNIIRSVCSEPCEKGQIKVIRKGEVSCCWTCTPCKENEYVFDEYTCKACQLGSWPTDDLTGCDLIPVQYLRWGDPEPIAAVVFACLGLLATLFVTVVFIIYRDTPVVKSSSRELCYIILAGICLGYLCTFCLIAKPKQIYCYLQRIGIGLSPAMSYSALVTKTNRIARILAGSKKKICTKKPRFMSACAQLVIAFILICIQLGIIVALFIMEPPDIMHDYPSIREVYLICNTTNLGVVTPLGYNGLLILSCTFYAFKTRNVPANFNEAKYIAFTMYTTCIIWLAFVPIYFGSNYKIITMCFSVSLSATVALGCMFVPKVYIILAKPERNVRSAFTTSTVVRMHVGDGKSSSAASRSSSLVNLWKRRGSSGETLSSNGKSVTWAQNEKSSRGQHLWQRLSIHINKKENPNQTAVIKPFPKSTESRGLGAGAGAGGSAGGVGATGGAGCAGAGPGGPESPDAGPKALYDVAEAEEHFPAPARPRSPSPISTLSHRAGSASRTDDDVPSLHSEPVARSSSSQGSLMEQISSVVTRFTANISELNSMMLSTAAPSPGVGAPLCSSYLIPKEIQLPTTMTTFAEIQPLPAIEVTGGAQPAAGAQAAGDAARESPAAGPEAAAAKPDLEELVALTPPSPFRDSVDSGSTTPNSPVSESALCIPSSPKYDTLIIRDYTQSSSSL
Sequence of olfactory cyclic nucleotide-gated channel (Rattus norvegicus, UniProt Q00195) (Q00195 whole entry): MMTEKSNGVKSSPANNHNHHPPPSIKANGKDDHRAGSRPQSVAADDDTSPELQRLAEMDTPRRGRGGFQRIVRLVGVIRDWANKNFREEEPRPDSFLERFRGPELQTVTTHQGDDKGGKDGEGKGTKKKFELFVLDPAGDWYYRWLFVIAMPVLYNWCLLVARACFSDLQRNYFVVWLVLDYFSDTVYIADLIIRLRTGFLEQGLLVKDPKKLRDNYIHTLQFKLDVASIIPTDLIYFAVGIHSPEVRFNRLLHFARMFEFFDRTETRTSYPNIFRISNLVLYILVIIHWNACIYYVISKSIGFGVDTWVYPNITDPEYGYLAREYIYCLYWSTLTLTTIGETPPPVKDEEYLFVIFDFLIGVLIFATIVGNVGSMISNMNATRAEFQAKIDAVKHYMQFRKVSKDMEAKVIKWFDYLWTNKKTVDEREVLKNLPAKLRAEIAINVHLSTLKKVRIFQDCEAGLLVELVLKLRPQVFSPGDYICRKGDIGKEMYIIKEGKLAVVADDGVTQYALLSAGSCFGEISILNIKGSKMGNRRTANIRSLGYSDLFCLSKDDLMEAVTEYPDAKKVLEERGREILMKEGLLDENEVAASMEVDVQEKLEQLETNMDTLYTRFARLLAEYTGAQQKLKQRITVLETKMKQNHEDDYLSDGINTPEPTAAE

Question: How did the “inhibition of glutamate-, quisqualate- or trans-ACPD-stimulated fluorescence increases” value [1] turn out when `NC(CP(=O)(O)O)C(=O)O` (centres unmarked) [AP3, 2-amino-3-phosphonopropionate] was run?
Answer: Its value is “Neither of these compounds (AP3, AP5 or CNQX) inhibited”.

Question: And the “effect on quisqualate-induced increase in IP1 levels” value [2]?
Answer: The value was “not affected”.

Question: For `NC(CCCP(=O)(O)O)C(=O)O` (centres unmarked) [AP5, 2-amino-5-phosphonopentanoate], which “inhibition of glutamate-, quisqualate- or trans-ACPD-stimulated fluorescence increases” value [1] is on record?
Answer: The value was “Neither of these compounds (AP3, AP5 or CNQX) inhibited”.

Question: How did the “inhibition of glutamate-, quisqualate- or trans-ACPD-stimulated fluorescence increases” value [1] turn out when `N#Cc1cc2c(cc1[N+](=O)[O-])=NC(=O)C(=O)N=2` [CNQX, 6-cyano-7-nitroquinoxaline-2,3-dione] was run?
Answer: Its value is “Neither of these compounds (AP3, AP5 or CNQX) inhibited”.

Question: For `CC(C)Cn1c(=O)n(C)c(=O)c2[nH]cnc21` [IBMX, 3-isobutyl-1-methylxanthine], which “change in [Ca++]i” value [3] is on record?
Answer: The value was “more significant increase”.

Question: How did the “current in inside-out patch” value [4] turn out when `Nc1ncnc2c1ncn2[C@@H]1O[C@@H]2COP(=O)(O)O[C@H]2[C@H]1O` [cAMP, cyclic AMP] was run?
Answer: Its value is “a current was elicited”.

Question: How did the “intracellular Ca++ concentration change” value [5] turn out when `C[N+](C)(C)CCOC(N)=O.[Cl-]` [carbamylcholine] was run?
Answer: The value was “detectable increase in the intracellular Ca^++ concentration of the majority of the cells”.

Question: [^3H]-glutamate was tested. Which “specific binding versus membranes of pUC19-transfected cells” value [6] did it give?
Answer: The value was “significantly higher”.
